This assay has as its target SARS-CoV M^pro (Severe acute respiratory syndrome coronavirus, UniProt P0C6X7). The class given is biochemical.

These results are taken from article PMC7127602 (Bioorganic & Medicinal Chemistry, 2007).

On to `O=C(Oc1cncc(Cl)c1)c1ccc(-c2cccc([N+](=O)[O-])c2)o1` [compound 5], for which the “Increase in IC50 relative to compound 2” value was “eightfold”.
The same measure for `O=C(Oc1cncc(Cl)c1)c1ccc(-c2ccccc2[N+](=O)[O-])o1` [compound 4]: “threefold”.
